Experimental findings from patent US20230263891A1, “SONOGENETIC STIMULATION OF CELLS EXPRESSING TRPA1” (Salk Institute for Biological Studies, priority 2020, published 2023) are described below.

Read-outs that look alike come from different tables or passages of the source. Where no end group is shown, it is not given here.

Common to all, as to format: cell-based
Assay [1] concerns the target T1, hsTRPA1 (Homo sapiens, UniProt O75762).
T1 construct: HEK cells transfected with either full-length hsTRPA1 or channels containing deletions; porcine teschovirus-1 2A self-cleaving peptide (p2A) linking the channel to dTomato in a bicistronic vector (cleaved yes); host or cells: HEK 293T cells expressing human alpha-v beta-3 integrin and stably expressing GCaMP6f
Nature of the assay: Agonist activation of hsTRPA1-expressing HEK cells (GCaMP6f). As to conditions: NMM 100 μM; AITC 33 μM; dTom control cells for comparison.

For assay [2], the system named is mouse primary cortical neurons. Nature of the assay: GCaMP6f calcium imaging of primary cortical neurons under ultrasound or AITC.
Assay [3] has as its target T1, hsTRPA1.
Assay [4] addresses T1, hsTRPA1. As to the kind of experiment: Effect of agents on ultrasound-evoked GCaMP6f response of hsTRPA1-expressing HEK cells.
The target in assay [5] is T1, hsTRPA1. Nature of the assay: Effect of agents on AITC-triggered GCaMP6f response of hsTRPA1-expressing HEK cells. As to conditions: AITC 33 μM; after incubation with agent; versus vehicle.
A further assay deals with mouse-Piezol (Mus musculus, UniProt E2JF22). As to conditions: yoda-1 10 μM.
mouse-Piezol, sequence (E2JF22 whole entry): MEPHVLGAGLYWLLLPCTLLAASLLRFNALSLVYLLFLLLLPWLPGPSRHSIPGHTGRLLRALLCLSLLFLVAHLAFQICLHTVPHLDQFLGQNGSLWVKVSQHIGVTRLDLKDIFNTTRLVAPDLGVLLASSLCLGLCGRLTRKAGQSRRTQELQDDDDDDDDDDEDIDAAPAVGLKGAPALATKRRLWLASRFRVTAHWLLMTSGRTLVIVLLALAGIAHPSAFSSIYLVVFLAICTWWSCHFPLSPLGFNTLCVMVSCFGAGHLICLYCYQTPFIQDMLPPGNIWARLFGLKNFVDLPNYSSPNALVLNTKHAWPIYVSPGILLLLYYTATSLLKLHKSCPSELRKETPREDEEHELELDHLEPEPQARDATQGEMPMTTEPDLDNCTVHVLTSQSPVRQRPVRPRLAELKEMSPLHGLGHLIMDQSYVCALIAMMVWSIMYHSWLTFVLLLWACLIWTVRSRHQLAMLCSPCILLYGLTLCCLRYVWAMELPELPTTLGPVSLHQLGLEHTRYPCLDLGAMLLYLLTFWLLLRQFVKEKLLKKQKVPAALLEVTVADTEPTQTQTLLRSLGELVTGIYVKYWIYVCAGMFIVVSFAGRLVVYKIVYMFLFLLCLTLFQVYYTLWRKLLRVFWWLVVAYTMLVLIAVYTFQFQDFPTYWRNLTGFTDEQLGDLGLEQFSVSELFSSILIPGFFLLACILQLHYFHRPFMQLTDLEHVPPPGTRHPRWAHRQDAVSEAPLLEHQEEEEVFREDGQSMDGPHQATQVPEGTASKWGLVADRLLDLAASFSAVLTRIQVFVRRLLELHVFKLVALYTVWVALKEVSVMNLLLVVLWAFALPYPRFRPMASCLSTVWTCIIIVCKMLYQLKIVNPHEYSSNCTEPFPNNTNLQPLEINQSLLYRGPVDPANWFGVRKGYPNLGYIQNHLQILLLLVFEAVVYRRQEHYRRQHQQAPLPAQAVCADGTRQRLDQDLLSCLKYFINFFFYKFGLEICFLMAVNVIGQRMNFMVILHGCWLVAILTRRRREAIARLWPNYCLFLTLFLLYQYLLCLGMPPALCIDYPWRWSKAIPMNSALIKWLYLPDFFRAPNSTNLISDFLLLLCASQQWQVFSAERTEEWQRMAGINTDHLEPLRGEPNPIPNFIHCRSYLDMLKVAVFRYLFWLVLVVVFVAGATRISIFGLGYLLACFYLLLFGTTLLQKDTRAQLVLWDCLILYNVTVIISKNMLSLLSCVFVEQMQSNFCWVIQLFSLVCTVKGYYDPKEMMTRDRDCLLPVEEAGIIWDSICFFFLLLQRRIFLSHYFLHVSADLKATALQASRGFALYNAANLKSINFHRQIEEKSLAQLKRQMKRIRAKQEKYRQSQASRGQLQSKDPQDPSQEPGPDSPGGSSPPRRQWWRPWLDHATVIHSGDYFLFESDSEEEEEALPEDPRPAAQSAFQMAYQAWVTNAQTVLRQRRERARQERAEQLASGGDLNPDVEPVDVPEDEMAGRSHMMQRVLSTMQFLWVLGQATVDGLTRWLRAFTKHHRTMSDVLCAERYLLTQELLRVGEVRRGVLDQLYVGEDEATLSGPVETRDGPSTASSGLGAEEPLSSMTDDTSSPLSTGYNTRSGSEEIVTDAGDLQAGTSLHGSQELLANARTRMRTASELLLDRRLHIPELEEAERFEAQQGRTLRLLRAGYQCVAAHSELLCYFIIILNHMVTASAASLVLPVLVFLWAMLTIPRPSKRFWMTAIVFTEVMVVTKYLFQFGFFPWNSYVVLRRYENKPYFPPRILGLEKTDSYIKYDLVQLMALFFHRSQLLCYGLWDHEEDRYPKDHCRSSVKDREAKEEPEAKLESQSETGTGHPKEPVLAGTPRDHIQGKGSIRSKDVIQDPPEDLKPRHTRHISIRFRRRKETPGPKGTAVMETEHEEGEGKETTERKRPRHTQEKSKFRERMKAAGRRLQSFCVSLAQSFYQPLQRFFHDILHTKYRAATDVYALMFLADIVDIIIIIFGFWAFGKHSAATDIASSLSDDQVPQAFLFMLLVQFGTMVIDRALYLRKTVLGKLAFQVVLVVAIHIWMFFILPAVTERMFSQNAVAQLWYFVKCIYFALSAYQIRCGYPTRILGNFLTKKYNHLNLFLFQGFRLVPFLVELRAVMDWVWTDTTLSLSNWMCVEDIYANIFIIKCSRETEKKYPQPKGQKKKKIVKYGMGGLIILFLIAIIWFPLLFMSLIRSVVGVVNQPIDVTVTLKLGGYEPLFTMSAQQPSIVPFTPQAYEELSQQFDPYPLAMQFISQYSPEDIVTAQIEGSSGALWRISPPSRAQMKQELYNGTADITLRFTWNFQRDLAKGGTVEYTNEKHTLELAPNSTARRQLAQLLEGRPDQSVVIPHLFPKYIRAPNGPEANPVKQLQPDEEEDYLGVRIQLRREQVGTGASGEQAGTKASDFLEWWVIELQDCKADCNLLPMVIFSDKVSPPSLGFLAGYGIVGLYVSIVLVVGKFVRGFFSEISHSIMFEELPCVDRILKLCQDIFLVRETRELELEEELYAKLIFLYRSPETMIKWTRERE
Assay [6] deals with Human Embryonic Kidney 293T (HEK) cells. Nature of the assay: Ultrasound-evoked GCaMP6f calcium response of HEK cells transfected with candidate channels (screen and TRPA1 variants). As to conditions: for Response to ultrasound stimulation (cells activated, GCaMP6f): transfected GCaMP6f HEK cells, 6.91 MHz, screen at 100 msecs, 1.5 MPa.
Assay [7] has the same test system. As to the kind of experiment: AITC (chemical agonist) GCaMP6f response of HEK cells transfected with hsTRPA1 variants. As to conditions: AITC 33 μM.
Where [8] appears, read: control neurons without hsTRPA1.
Setting [9] is: A784168 2 μM, BAPTA 30 μM, versus vehicle.
Where [10] appears, read: agent added 45 minutes before, HC-030031 40 μM, MCD 5 mM, nocodazole 5 μM, latrunculin A 1 μM, paclitaxel 600 nM, versus vehicle.

T1 sequence (O75762 whole entry): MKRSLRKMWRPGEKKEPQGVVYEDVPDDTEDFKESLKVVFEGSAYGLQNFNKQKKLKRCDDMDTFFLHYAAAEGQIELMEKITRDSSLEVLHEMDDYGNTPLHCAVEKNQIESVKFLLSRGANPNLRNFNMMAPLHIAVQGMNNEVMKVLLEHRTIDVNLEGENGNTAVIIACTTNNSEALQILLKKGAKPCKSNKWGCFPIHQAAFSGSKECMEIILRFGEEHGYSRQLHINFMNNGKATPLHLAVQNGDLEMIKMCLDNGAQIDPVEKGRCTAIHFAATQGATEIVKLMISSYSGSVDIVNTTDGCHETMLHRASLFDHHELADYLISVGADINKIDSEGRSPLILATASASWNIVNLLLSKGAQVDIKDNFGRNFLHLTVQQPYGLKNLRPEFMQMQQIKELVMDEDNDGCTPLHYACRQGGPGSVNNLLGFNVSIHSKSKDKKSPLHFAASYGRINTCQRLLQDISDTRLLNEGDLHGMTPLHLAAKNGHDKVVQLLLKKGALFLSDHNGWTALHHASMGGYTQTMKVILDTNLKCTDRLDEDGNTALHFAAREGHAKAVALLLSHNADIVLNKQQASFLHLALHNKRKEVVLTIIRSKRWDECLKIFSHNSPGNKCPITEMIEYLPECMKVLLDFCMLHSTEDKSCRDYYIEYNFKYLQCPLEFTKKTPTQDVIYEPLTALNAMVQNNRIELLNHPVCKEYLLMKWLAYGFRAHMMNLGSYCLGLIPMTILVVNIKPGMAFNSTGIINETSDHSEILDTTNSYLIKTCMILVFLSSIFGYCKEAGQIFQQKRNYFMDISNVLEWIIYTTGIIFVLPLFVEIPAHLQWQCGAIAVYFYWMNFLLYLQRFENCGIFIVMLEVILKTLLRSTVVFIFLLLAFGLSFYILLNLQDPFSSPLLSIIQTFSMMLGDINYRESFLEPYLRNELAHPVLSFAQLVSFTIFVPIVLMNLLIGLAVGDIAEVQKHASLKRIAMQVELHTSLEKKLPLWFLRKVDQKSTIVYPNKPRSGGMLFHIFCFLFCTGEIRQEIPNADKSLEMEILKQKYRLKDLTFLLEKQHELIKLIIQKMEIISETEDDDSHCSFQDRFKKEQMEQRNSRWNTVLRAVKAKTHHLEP

`C=CCN=C=S` [AITC, allyl isothiocyanate]: the “Activation of TRPA1-expressing HEK cells by agonist (GCaMP6f)” value on hsTRPA1 [1] was “specifically activated TRPA1-expressing HEK cells”. In addition, the “Response of Cre-only control neurons to agonist” value in assay [2] (setting [8]) is “did not respond”.
`O=C(O)CN(CC(=O)O)c1ccccc1OCCOc1ccccc1N(CC(=O)O)CC(=O)O` [BAPTA]: the “Effect on ultrasound responses of hsTRPA1-expressing neurons (GCaMP6f)” value (from here on “Effect on ultrasound responses … (GCaMP6f)”) in assay [2] (setting [9]) is “blocked neuronal responses to ultrasound”.
Turning to `CC(C)c1ccc(NC(=O)Cn2cnc3c2c(=O)n(C)c(=O)n3C)cc1` [HC-030331], the “Effect on ultrasound-triggered membrane events (mean peak amplitude)” value on hsTRPA1 [3] was “attenuated”. Also, on hsTRPA1 [4], the “Effect on ultrasound responses of hsTRPA1-expressing HEK cells (GCaMP6f peak amplitude)” value (shortened to “Effect … (GCaMP6f peak amplitude)”) is given as “inhibited”. The “Effect on ultrasound responses … (GCaMP6f)” value in assay [2] (setting [9]) is reported as “significantly attenuated”. Besides, the “Effect on ultrasound-evoked activity of control (Cre) neurons” value in assay [2] (setting [8]) is “without affecting”.
For `CN1C(=O)C=CC1=O` [NMM, N-methylmaleimide], the “Activation of TRPA1-expressing HEK cells by agonist (GCaMP6f)” value at hsTRPA1 [1] is “specifically activated TRPA1-expressing HEK cells”.
With `CC(=O)O[C@H]1C(=O)[C@@]2(C)[C@H]([C@H](OC(=O)c3ccccc3)[C@]3(O)C[C@H](OC(=O)[C@H](O)[C@@H](NC(=O)c4ccccc4)c4ccccc4)C(C)=C1C3(C)C)[C@]1(OC(C)=O)CO[C@@H]1C[C@@H]2O` [Taxol, paclitaxel], the “Effect … (GCaMP6f peak amplitude)” value at hsTRPA1 [4] (setting [10]) is on record as “no significant effect”. Further, the “Effect on AITC-triggered responses of hsTRPA1-expressing HEK cells” value (“Effect on AITC-triggered responses” for short) at hsTRPA1 [5] is listed as “significantly reduced”.
The like results for `C=C1[C@@H](C)[C@H]2[C@H](Cc3ccccc3)NC(=O)[C@]23[C@H](OC(C)=O)/C=C/[C@@](C)(O)C(=O)[C@@H](C)C/C=C/[C@H]3[C@@H]1O` [cytochalasin D] were, in that order, “reduced the ultrasound responses” and “not to be altered”.
On to `C/C1=C\[C@H](C)C[C@H](C)OC(=O)C[C@H](c2ccc(O)cc2)NC(=O)[C@@H](Cc2c(Br)[nH]c3ccccc23)N(C)C(=O)[C@H](C)NC(=O)[C@@H](C)C1` [jasplakinolide], for which the “Effect on AITC-triggered responses” value on hsTRPA1 [5] is recorded as “significantly reduced”.
For `C/C1=C/C(=O)O[C@@H]2C[C@@H](CC[C@H](C)/C=C\C=C\CC1)O[C@@](O)([C@@H]1CSC(=O)N1)C2` [latrunculin A], the “Effect … (GCaMP6f peak amplitude)” value at hsTRPA1 [4] (setting [10]) is reported as “reduced the ultrasound responses”. Further, the “Effect on AITC-triggered responses” value on hsTRPA1 [5] was “significantly reduced”.
As to `COC(=O)Nc1nc2ccc(C(=O)c3cccs3)cc2[nH]1` [nocodazole], on hsTRPA1 [4] (setting [10]), the “Effect … (GCaMP6f peak amplitude)” value is on record as “no significant effect”. In addition, the “Effect on AITC-triggered responses” value at hsTRPA1 [5] is “not to be altered”.
In the case of `NC1=N[C@H](O)[C@H]2[C@H]3O[C@]4(O)O[C@@H]([C@@H](O)[C@@]2(N1)[C@@H]4O)[C@]3(O)CO` [tetrodotoxin], in assay [2], the “Effect on ultrasound responses … (GCaMP6f)” value was “partially blocked” and the “Effect on ultrasound-evoked activity of control (Cre) neurons” value is on record as “completely abolishing responses”.
For the molecule `Clc1cccc(Cl)c1CSc1nnc(-c2cnccn2)s1` [yoda-1], the “Response of HEK cells expressing mouse Piezo1 to compound” value on mouse-Piezol is on record as “respond”.
As to “GsMTx-4-4: GsMTx-4, applied to Piezo1- and TRPV1-expressing HEK cells (GCLEFWWKCNPNDDKCCRPKLKCSKLFKLCNFSF; ends and bridges not checked; cysteine pairing not given here; UniProt Q7YT39 47-80, looked up)”, the “Response of HEK cells expressing mouse Piezo1 to compound” value with mouse-Piezol was “not”.
methyl-beta-cyclodextrin [MCD]: the “Effect … (GCaMP6f peak amplitude)” value on hsTRPA1 [4] (setting [10]) is given as “attenuated hsTRPA1 responses to ultrasound”. Moreover, the “Effect on AITC-triggered responses” value on hsTRPA1 [5] is on record as “did not affect the response to AITC”.
Consider “mouse homolog: mouse TRPA1 (Mus musculus; RefSeq NM_177781)”, for which the “Response to ultrasound stimulation (cells activated, GCaMP6f)” value in assay [6] is reported as “only a third as responsive as hsTRPA1”.
The same measure, in the same setting: the same measure for “mouse-Piezol: mouse Piezo1 channel expressed in HEK cells”: “not”.

B1: Y785S: hsTRPA1 mutant with TM2 CRAC domain disrupted, Tyr785 replaced with Ser (protein, UniProt O75762 1-1119, looked up, variant Y785S)
Transient receptor potential …: MKRSLRKMWRPGEKKEPQGVVYEDVPDDTEDFKESLKVVFEGSAYGLQNFNKQKKLKRCDDMDTFFLHYAAAEGQIELMEKITRDSSLEVLHEMDDYGNTPLHCAVEKNQIESVKFLLSRGANPNLRNFNMMAPLHIAVQGMNNEVMKVLLEHRTIDVNLEGENGNTAVIIACTTNNSEALQILLKKGAKPCKSNKWGCFPIHQAAFSGSKECMEIILRFGEEHGYSRQLHINFMNNGKATPLHLAVQNGDLEMIKMCLDNGAQIDPVEKGRCTAIHFAATQGATEIVKLMISSYSGSVDIVNTTDGCHETMLHRASLFDHHELADYLISVGADINKIDSEGRSPLILATASASWNIVNLLLSKGAQVDIKDNFGRNFLHLTVQQPYGLKNLRPEFMQMQQIKELVMDEDNDGCTPLHYACRQGGPGSVNNLLGFNVSIHSKSKDKKSPLHFAASYGRINTCQRLLQDISDTRLLNEGDLHGMTPLHLAAKNGHDKVVQLLLKKGALFLSDHNGWTALHHASMGGYTQTMKVILDTNLKCTDRLDEDGNTALHFAAREGHAKAVALLLSHNADIVLNKQQASFLHLALHNKRKEVVLTIIRSKRWDECLKIFSHNSPGNKCPITEMIEYLPECMKVLLDFCMLHSTEDKSCRDYYIEYNFKYLQCPLEFTKKTPTQDVIYEPLTALNAMVQNNRIELLNHPVCKEYLLMKWLAYGFRAHMMNLGSYCLGLIPMTILVVNIKPGMAFNSTGIINETSDHSEILDTTNSYLIKTCMILVFLSSIFGSCKEAGQIFQQKRNYFMDISNVLEWIIYTTGIIFVLPLFVEIPAHLQWQCGAIAVYFYWMNFLLYLQRFENCGIFIVMLEVILKTLLRSTVVFIFLLLAFGLSFYILLNLQDPFSSPLLSIIQTFSMMLGDINYRESFLEPYLRNELAHPVLSFAQLVSFTIFVPIVLMNLLIGLAVGDIAEVQKHASLKRIAMQVELHTSLEKKLPLWFLRKVDQKSTIVYPNKPRSGGMLFHIFCFLFCTGEIRQEIPNADKSLEMEILKQKYRLKDLTFLLEKQHELIKLIIQKMEIISETEDDDSHCSFQDRFKKEQMEQRNSRWNTVLRAVKAKTHHLEP
With B1, the “GCaMP6f peak amplitude upon treatment with AITC, variant versus full-length hsTRPA1” value in assay [7] is on record as “without affecting responsiveness to AITC”. Besides, in assay [6] (transfected HEK cells), the “GCaMP6f peak amplitude upon ultrasound stimulation, variant versus full-length hsTRPA1” value is recorded as “complete loss of ultrasound sensitivity”.

B2: human-TRPV1: human TRPV1 channel expressed in HEK cells (protein, UniProt Q8NER1 1-839, looked up)
Transient receptor potential …: MKKWSSTDLGAAADPLQKDTCPDPLDGDPNSRPPPAKPQLSTAKSRTRLFGKGDSEEAFPVDCPHEEGELDSCPTITVSPVITIQRPGDGPTGARLLSQDSVAASTEKTLRLYDRRSIFEAVAQNNCQDLESLLLFLQKSKKHLTDNEFKDPETGKTCLLKAMLNLHDGQNTTIPLLLEIARQTDSLKELVNASYTDSYYKGQTALHIAIERRNMALVTLLVENGADVQAAAHGDFFKKTKGRPGFYFGELPLSLAACTNQLGIVKFLLQNSWQTADISARDSVGNTVLHALVEVADNTADNTKFVTSMYNEILMLGAKLHPTLKLEELTNKKGMTPLALAAGTGKIGVLAYILQREIQEPECRHLSRKFTEWAYGPVHSSLYDLSCIDTCEKNSVLEVIAYSSSETPNRHDMLLVEPLNRLLQDKWDRFVKRIFYFNFLVYCLYMIIFTMAAYYRPVDGLPPFKMEKTGDYFRVTGEILSVLGGVYFFFRGIQYFLQRRPSMKTLFVDSYSEMLFFLQSLFMLATVVLYFSHLKEYVASMVFSLALGWTNMLYYTRGFQQMGIYAVMIEKMILRDLCRFMFVYIVFLFGFSTAVVTLIEDGKNDSLPSESTSHRWRGPACRPPDSSYNSLYSTCLELFKFTIGMGDLEFTENYDFKAVFIILLLAYVILTYILLLNMLIALMGETVNKIAQESKNIWKLQRAITILDTEKSFLKCMRKAFRSGKLLQVGYTPDGKDDYRWCFRVDEVNWTTWNTNVGIINEDPGNCEGVKRTLSFSLRSSRVSGRHWKNFALVPLLREASARDRQSAQPEEVYLRQFSGSLKPEDAEVFKSPAASGEK
Turning to B2, the “Response to ultrasound stimulation (cells activated, GCaMP6f)” value in assay [6] was “not”.
